According to EP2524918A1, “Imidazopyrazines derivates as kinase inhibitors” (Centro Nacional de Investigaciones Oncológicas (CNIO), priority 2011, dated 2012):

Legend:
[1] = system: U2OS; test: Antiproliferation MTT assay, U2OS; assay type: cell-based; details: Homo sapiens, Osteosar coma
Experimental: (§1) Cells were seeded at 10000-50000 cells/well in 96 plates for 16 h. On day two, nine serial 1:3 compound dilutions were made in DMSO in a 96 well plate. The compounds were added to duplicate wells in 96-well cell plates a using a FX BECKMAN robot (Beckman Coulter) and incubated at 37°C with CO2 atmosphere. After 3 days, relative numbers of viable cells were measured by MTT (Sigma) according to manufacturer's instruction and read on EndVision (Perkin Elmer). EC50 values were calculated using ActivityBase from IDBS. Drugs in combination assays were dosed starting at 4 x EC50 concentrations and continuing with serial dilutions 1:2. PI3K inhibitors and chemotherapeutic agents were added simultaneously.
(§2) An additional exemplary in vitro cell proliferation assay includes the following steps: • 1. An aliquot of 200 µl of cell culture containing optimal density (between 10^4 - 5x10^4 cells) (see Examples for cell lines and tumour type) in medium was deposited in each well of a 96-well flat bottom plates. • 2. Control wells were prepared containing medium without cells • 3. The compound was added to the experimental wells and incubated for 3 days. • 4. One quarter volume of MTT reagent with respect to the volume of cell culture medium present in each well was added and incubated 24h at 37°C with 5% CO2. • 5. One quarter volume of solubilisation buffer with respect to the volume of cell culture medium present in each well was added and incubated 24h at 37°C with 5% CO2. • 6. Formazan salt formed was recorded and reported in graphs as relative growth vs. cells treated only with dmso.

[2] = system: MV4:11; test: Antiproliferation assay, MV4:11; assay type: cell-based; details: Homo sapiens, AML, read-out: MMP MV4:11 IC50
Experimental: as §1, §2

[3] = system: HDAC; test: HDAC enzymatic activity (HDAC-Glo I/II Screening System, HeLa cell nuclear extracts); assay type: biochemical; details: HeLa cell nuclear extract, 25°C for 30 minutes
Experimental: HDAC inhibitory activity was evaluated using the HDAC-Glo™ I/II Screening System from Promega (G6430) using manufacturing recommendations. The system emploies HeLa cell nuclear extracts as a source of HDAC activities. The assay uses an acetylated, live-cell-permeant, luminogenic peptide substrate that can be deacetylated by HDAC activities. Substrate deacetylation is measured by a coupled protease reaction that cleaves the peptide from aminoluciferin, which is quantified in a reaction using recombinant Ultra-Glo™ firefly luciferase. Test compounds were serially diluted in dimethylsulphoside (DMSO) and added to HeLa cell nuclear extract in the presence of the acetylated luminogenic peptide substrate and developer reagent. Reactions were incubated at 25°C for 30 minutes and luminescence was measured in the EnVision plate reader (Perkin Elmer). Data were analyzed using GraphPad Prism (v5.03) with a sigmoidal dose-response curve fitting for IC50 calculation.

[4] = system: A549; test: Antiproliferation MTT assay, A549; assay type: cell-based; details: Homo sapiens, A549, Lung Cancer
Experimental: as §1, §2

[5] = system: Miapaca; test: Antiproliferation MTT assay, Miapaca; assay type: cell-based; details: Homo sapiens, MIA PaCa-2; Pancreas
Experimental: as §1, §2

[6] = target: T1, PI3K (p110α/p85α (Homo sapiens, UniProt P42336)); test: PI3K activity assay (ADP Hunter Plus); assay type: biochemical; details: 50 µM ATP, 30 µM PIP2, 1 hour at 25°C; read-out: PI3Kα IC50
T1 construct: purchased Carna Biosciences #07CBS-0402A
T1 sequence (P42336 whole entry): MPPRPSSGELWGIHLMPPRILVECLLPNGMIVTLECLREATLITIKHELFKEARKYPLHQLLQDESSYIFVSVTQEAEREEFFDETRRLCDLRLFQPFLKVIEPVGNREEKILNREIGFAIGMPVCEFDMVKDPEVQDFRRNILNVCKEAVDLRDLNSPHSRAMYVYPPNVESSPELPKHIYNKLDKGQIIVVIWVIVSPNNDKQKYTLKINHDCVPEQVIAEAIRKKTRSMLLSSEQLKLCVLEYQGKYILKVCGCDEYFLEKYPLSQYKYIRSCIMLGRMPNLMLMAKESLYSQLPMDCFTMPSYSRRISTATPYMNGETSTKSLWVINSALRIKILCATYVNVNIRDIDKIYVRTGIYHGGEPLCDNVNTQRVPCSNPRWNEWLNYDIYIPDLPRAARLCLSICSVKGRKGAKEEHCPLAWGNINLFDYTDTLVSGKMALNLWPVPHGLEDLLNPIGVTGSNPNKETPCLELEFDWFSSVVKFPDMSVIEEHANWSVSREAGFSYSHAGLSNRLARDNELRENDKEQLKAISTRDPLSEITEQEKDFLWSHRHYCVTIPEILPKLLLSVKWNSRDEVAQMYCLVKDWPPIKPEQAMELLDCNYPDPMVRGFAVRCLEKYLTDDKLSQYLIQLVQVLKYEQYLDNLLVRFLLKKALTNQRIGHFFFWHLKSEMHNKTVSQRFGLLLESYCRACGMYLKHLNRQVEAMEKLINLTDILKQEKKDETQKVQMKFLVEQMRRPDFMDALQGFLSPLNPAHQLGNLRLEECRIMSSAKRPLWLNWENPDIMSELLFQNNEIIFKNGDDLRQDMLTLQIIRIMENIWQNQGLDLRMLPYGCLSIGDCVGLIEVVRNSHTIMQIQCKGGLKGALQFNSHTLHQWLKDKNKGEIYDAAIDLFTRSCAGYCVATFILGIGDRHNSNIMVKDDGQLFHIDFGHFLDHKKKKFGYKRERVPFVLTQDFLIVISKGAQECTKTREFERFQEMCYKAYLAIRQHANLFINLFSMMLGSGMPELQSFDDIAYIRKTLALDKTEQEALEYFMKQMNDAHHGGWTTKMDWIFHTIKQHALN
T1 sequence (P27986 whole entry partner): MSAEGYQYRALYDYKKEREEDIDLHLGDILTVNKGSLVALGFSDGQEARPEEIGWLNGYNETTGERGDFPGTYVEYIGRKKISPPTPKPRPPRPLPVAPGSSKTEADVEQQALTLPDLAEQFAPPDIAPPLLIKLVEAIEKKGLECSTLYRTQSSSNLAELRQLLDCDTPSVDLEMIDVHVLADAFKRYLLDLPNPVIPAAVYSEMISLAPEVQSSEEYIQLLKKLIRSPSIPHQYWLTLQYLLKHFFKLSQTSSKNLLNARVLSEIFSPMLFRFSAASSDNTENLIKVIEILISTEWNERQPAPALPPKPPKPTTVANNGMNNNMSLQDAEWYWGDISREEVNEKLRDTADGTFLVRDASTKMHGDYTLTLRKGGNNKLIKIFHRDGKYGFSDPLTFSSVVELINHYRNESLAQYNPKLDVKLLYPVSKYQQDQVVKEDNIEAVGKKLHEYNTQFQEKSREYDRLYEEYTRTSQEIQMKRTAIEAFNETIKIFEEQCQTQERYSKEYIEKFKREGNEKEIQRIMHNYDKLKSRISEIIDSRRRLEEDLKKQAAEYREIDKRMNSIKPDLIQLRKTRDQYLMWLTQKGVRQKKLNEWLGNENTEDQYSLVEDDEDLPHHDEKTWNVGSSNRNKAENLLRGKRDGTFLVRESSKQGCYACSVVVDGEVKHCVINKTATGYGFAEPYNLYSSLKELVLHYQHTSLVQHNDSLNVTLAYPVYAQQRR
Experimental: The kinase activity was measured by using the commercial ADP Hunter™ Plus assay available from DiscoveRx (#33-016), which is a homogeneous assay to measure the accumulation of ADP, a universal product of kinase activity. […] Reaction was carried out for 1 hour at 25°C. Reagent A and B were sequentially added to the wells and plates were incubated for 30 min at 37 °C. Fluorescence counts were read in a Victor instrument (Perkin Elmer) with the recommended settings (544 and 580 nm as excitation and emission wavelengths, respectively). Values were normalized against the control activity included for each enzyme (i.e., 100 % PI3 kinase activity, without compound). These values were plot against the inhibitor concentration and were fit to a sigmoid dose-response curve by using the Graphad software.

[7] = system: phospho-Akt1 (Ser473) protein; test: PI3K cellular activity (Elisa assay), AKT phosphorylation in SKMEL cells; assay type: cell-based; details: inhibition of phosphorylation of AKT, read-out: AKT_P_SKMEL_ELISA_EC50
[8] = system: SKMel29; test: Antiproliferation MTT assay, SKMel29; assay type: cell-based; details: Melanoma
Experimental: as §1, §2

[9] = system: Raji; test: Antiproliferation MTT assay, Raji; assay type: cell-based; details: Homo sapiens, Burkitt Lymphoma
Experimental: as §1, §2

[10] = system: HT39; test: Antiproliferation MTT assay, HT39; assay type: cell-based; details: Colon Cancer
Experimental: as §1, §2

[11] = system: HCT 116p53 ++; test: Antiproliferation MTT assay, HCT 116; assay type: cell-based; details: Homo sapiens, HCT-116, Colon Cancer
Experimental: as §1, §2

[12] = system: MDAMB 231; test: Antiproliferation MTT assay, MDAMB 231; assay type: cell-based; details: Homo sapiens, MDA-MB-231; Breast cancer
Experimental: as §1, §2

[13] = system: BT474; test: Antiproliferation MTT assay, BT474; assay type: cell-based; details: Homo sapiens, BT-474; Breast cancer
Experimental: as §1, §2

[14] = system: PC3; test: Antiproliferation MTT assay, PC3; assay type: cell-based; details: Homo sapiens, PC-3; Prostate
Experimental: as §1
(§3) An additional exemplary in vitro cell proliferation assay includes the following steps: • 1. An aliquot of 200 µl of cell culture containing optimal density (between 10^4 - 5x10^4 cells) (see Examples for cell lines and tumour type) in medium was deposited in each well of a 96-well flat bottom plates. • 2. Control wells were prepared containing medium without cells • 3. The compound was added to the experimental wells and incubated for 3 days. • 4. […] Formazan salt formed was recorded and reported in graphs as relative growth vs. cells treated only with dmso.

[15] = system: SKMEL19; test: Antiproliferation MTT assay, SKMEL19; assay type: cell-based; details: Homo sapiens, SK-MEL19, Melanoma
Experimental: as §1, §2

[16] = system: NCI H1975; test: Antiproliferation MTT assay, NCI H1975; assay type: cell-based; details: Homo sapiens, Lung Cancer
Experimental: as §1, §2

[17] = system: NCI H23; test: Antiproliferation MTT assay, NCI H23; assay type: cell-based; details: Homo sapiens, Lung Cancer
Experimental: as §1, §2

[18] = system: COLO206; test: Antiproliferation MTT assay, COLO206; assay type: cell-based; details: Colon Cancer
Experimental: as §1, §2

[19] = system: MCF7; test: Antiproliferation MTT assay, MCF7; assay type: cell-based; details: Homo sapiens, Breast cancer
Experimental: as §1, §3

[20] = system: SW620; test: Antiproliferation MTT assay, SW620; assay type: cell-based; details: Homo sapiens, SW-620; Colon Cancer
Experimental: as §1, §3

[21] = system: NCI H460; test: Antiproliferation MTT assay, NCI H460; assay type: cell-based; details: Homo sapiens, Lung Cancer
Experimental: as §1, §3

[22] = system: phospho-Akt1 (Ser473) protein; test: PI3K cellular activity (Elisa assay), AKT phosphorylation in U2OS cells; assay type: cell-based; details: Homo sapiens, U20S cells, inhibition of phosphorylation of AKT, 3h treatment, read-out: AKT_P_U20S_ELISA_EC50
Experimental: Activity is measured as endogenous levels of phospho-Akt1 (Ser473) protein. Osteosarcoma U2OS cells are plated in 96 Poly-D-Lysine coating tissue culture plates (18.000 cells/well). After the treatment with serial dilutions of the compound during 3h, the cells are fixed directly in the wells with 4% paraformaldehyde.
After fixing, individual wells go through the same series of steps used for a conventional immunoblot: including blocking with 5% BSA, incubation with 1/1000 of primary antibody-AKT ([…]) in PBS containing 5% BSA at 4°C overnight (Cell Signalling), washing and incubation with second antibody HRP-anti-mouse IgG for 1 h at RT (Amersham). After the addition of SuperSignal ELISA Femto maximum sensitivity chemiluminescent substrate (Pierce) the results are read using a luminescence plate reader (Victor).

[23] = first of two columns with the same head (c1)
[24] = first of two columns with the same head (c3)
[25] = second of two columns with the same head (c2)

IC50 [1] [nM] | IC50 [2] [nM] | IC50 [3] [nM] | IC50 [4, 23] [nM] | IC50 [5] [nM] | IC50 [6] [nM] | EC50 [7] [nM] | IC50 [8] [nM] | IC50 [9] [nM] | IC50 [11] [nM] | IC50 [11, 24] [nM] | IC50 [12] [nM] | IC50 [13] [nM] | IC50 [14] [nM] | IC50 [15, 23] [nM] | IC50 [15, 25] [nM] | IC50 [18] [nM] | SMILES | IC50 [10] [nM] | IC50 [16] [nM] | IC50 [17] [nM] | also measured
5360 | 1150 | 21.1 | 50800 | 4320 | 5.7 | 330 | 1330 | 2750 | 7770 | 6710 | 5730 | 500 | 5760 | 3300 | 2300 | 5940 | Nc1ncc(-c2cn3cc(CNc4ncc(C(=O)NO)cn4)nc3c(N3CCOCC3)n2)cn1 [Final Compound 1] | 34600 | 14400 | 77900 | 
2110 | 340 | 9 | 3530 | 630 | 3.2 | 70 | 16 | 280 | 670 | 1160 | 560 | 94 | 1170 | 370 | 70 | 560 | Nc1ncc(-c2cn3cc(CN4CCN(c5ncc(C(=O)NO)cn5)CC4)nc3c(N3CCOCC3)n2)cn1 [Final Compound 2] | 1210 | 1050 | 2150 | IC50 [4, 25]: 1320 nM; IC50 [19]: 540 nM; IC50 [20]: 1340 nM; IC50 [21]: 2390 nM; EC50 [22]: 1360 nM
250 | 40 | 10.6 | 1080 | 150 | 7.5 | 1940 | 16 | 51 | 240 | 410 | 180 | 19 |  | 100 | 43 | 150 | CN(Cc1cn2cc(-c3cnc(N)nc3)nc(N3CCOCC3)c2n1)c1ncc(C(=O)NO)cn1 [Final Compound 3] | 580 | 240 | 2040 | IC50 [4, 25]: 990 nM; IC50 [19]: 120 nM; IC50 [20]: 400 nM; IC50 [21]: 1690 nM; EC50 [22]: 26 nM
